These results are taken from ChEMBL document CHEMBL1759869, “Discovery of spirocyclic sulfonamides as potent Akt inhibitors with exquisite selectivity against PKA” (Bioorg Med Chem Lett, 2011).

The nature of test [1]: Inhibition of PKA.
Test [2] can be described thus: Selectivity ratio of IC50 for PKA to IC50 for Akt1.
For test [3], the target named is T1, RAC-alpha serine/threonine-protein kinase (Homo sapiens, UniProt P31749). The test can be described thus: Inhibition of Akt1.
In test [4] the target is T1, RAC-alpha serine/threonine-protein kinase. The test can be described thus: Inhibition of AKT1-mediated PRAS40 phosphorylation in human LNCaP cells. The test is classed as cell-based.

The structures appear in SMILES notation.

T1 sequence (P31749 whole entry): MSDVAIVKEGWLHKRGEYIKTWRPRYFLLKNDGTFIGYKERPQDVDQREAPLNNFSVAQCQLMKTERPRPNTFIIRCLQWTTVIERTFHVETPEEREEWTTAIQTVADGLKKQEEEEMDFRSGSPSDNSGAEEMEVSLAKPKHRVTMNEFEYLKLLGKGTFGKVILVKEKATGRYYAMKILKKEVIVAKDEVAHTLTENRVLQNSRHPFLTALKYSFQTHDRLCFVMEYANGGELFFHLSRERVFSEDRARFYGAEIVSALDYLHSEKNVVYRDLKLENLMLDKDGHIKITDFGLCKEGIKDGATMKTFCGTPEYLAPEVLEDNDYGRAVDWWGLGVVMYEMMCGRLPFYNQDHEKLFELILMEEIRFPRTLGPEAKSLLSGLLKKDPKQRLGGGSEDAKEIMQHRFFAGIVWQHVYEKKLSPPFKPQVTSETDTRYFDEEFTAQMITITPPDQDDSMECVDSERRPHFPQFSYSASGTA

A word on the IC50: it is the concentration at which inhibition is half-maximal. With `CCOCCN(C[C@@H](O)CN1CCCC2(CCN(c3ncnc4[nH]nc(C)c34)C2)C1)S(=O)(=O)c1c(C)cccc1C` (some centres undefined), the IC50 in test [1] was 0.56 µM. Also, the Ratio IC50 in test [2] turned out to be 27.

With `Nc1ncnc(N2CC[C@@]3(CCCN(C[C@H](O)CNS(=O)(=O)c4ccccc4Cl)C3)C2)c1C1CC1`, the IC50 is 9 nM in test [3], 8.3 µM in test [1] and 1900 nM in test [4]. Further, the Ratio IC50 in test [2] amounted to 920.

`Cc1ccccc1S(=O)(=O)NC[C@@H](O)CN1CCC[C@@]2(CCN(c3ncnc(N)c3C3CC3)C2)C1`: the IC50 was 9 nM in test [3], 5 µM in test [1] and 1200 nM in test [4]. Also, in test [2], the Ratio IC50 was 560.

With `CCOCCN(C[C@@H](O)CN1CCCC2(CCN(c3ncncc3C3CC3)C2)C1)S(=O)(=O)c1c(C)cccc1C` (some centres undefined), the IC50 is 12 nM in test [3], 3.4 µM in test [1] and 740 nM in test [4]. In test [2], the Ratio IC50 worked out at 280.

Turning to `Cc1cccc(C)c1S(=O)(=O)N1CCC[C@H]1[C@@H](O)CN1CCC[C@@]2(CCN(c3ncnc(N)c3C3CC3)C2)C1`, the IC50 in test [3] stood at 9 nM; in test [1], 3.9 µM; in test [4] it was 690 nM. For the same compound, the Ratio IC50 in test [2] was 430.

`Cc1ccc(S(=O)(=O)NC[C@@H](O)CN2CCC[C@@]3(CCN(c4ncnc(N)c4C4CC4)C3)C2)c(C)c1`: the IC50 in test [3] is 160 nM; in test [1] it was greater than 10 µM; in test [4] it was 18000 nM. In test [2], the Ratio IC50 is greater than 63.

Regarding `Cc1noc(C)c1S(=O)(=O)NC[C@@H](O)CN1CCC[C@@]2(CCN(c3ncnc(N)c3C3CC3)C2)C1`, the IC50 in test [3] stood at 3 nM; in test [1], 1.9 µM; in test [4], 490 nM. The Ratio IC50 in test [2] was found to be 630.

Consider `Nc1ncnc(N2CC[C@@]3(CCCN(C[C@H](O)CNS(=O)(=O)c4ccccc4Br)C3)C2)c1C1CC1`, for which the figures for the IC50 in test [3], in test [1] and in test [4] were 17 nM, 9.4 µM and 2000 nM, respectively. In addition, in test [2], the Ratio IC50 was found to be 550.

For `CCOCCN(C[C@@H](O)CN1CCCC2(CCN(c3ncnc4n[nH]c(C)c34)C2)C1)S(=O)(=O)c1c(C)cccc1C` (some centres undefined), the IC50 stood at 21 nM in test [3] and 310 nM in test [4].

Take `Nc1ncnc(N2CC[C@@]3(CCCN(C[C@H](O)CNS(=O)(=O)c4ccccc4F)C3)C2)c1C1CC1`: the IC50 in test [3] is 81 nM; in test [1] it was greater than 10 µM; in test [4], 14000 nM. Besides, the Ratio IC50 in test [2] was greater than 120.

On to `CCOCCN(C[C@@H](O)CN1CCCC2(CCN(c3ncnc(N)c3C3CC3)C2)C1)S(=O)(=O)c1c(C)cccc1C` (mixture of isomers), for which the figures for the IC50 in test [3], in test [1] and in test [4] were 12 nM, 2.2 µM and 470 nM, respectively. Further, the Ratio IC50 in test [2] was 180.

Consider `CCOCCN(C[C@@H](O)CN1CCCC2(CCN(c3ncnc4ccccc34)C2)C1)S(=O)(=O)c1c(C)cccc1C` (some centres undefined), for which the figures for the IC50 in test [1] and in test [4] were 4.7 µM and 2400 nM, respectively.

Take `Cc1ccncc1S(=O)(=O)NC[C@@H](O)CN1CCC[C@@]2(CCN(c3ncnc(N)c3C3CC3)C2)C1`: the IC50 in test [3] is 1100 nM; in test [1], greater than 10 µM. Further, in test [2], the Ratio IC50 is greater than 9.

On to `Cc1cccc(C)c1S(=O)(=O)N1CCC[C@H]1[C@H](O)CN1CCC[C@@]2(CCN(c3ncnc(N)c3C3CC3)C2)C1`, for which the IC50 in test [3] was 250 nM; in test [1], greater than 10 µM; in test [4], 13000 nM. Further, in test [2], the Ratio IC50 is greater than 40.

On to `CCOCCN(C[C@@H](O)CN1CCCC2(CCN(c3ncnc4[nH]cc(C)c34)CC2)C1)S(=O)(=O)c1c(C)cccc1C`, for which the values for the IC50 in test [3], in test [1] and in test [4] were 41 nM, 0.21 µM and 1200 nM, respectively. Besides, in test [2], the Ratio IC50 came to 5.

`Cc1cccc(C)c1S(=O)(=O)N1CCC[C@@H]1[C@@H](O)CN1CCC[C@@]2(CCN(c3ncnc(N)c3C3CC3)C2)C1`: the IC50 in test [3] is 19 nM; in test [1], 4.7 µM; in test [4], 2400 nM. The Ratio IC50 in test [2] was 250.

In the case of `CCOCCN(C[C@@H](O)CN1CCCC2(CCN(c3ncnc4[nH]cc(C)c34)C2)C1)S(=O)(=O)c1c(C)cccc1C` (some centres undefined), the figures for the IC50 in test [3], in test [1] and in test [4] were 2 nM, 0.067 µM and 180 nM, respectively. Moreover, the Ratio IC50 in test [2] was 28.

As for `Cc1cccc(C)c1S(=O)(=O)NC[C@@H](O)CN1CCC[C@@]2(CCN(c3ncnc(N)c3C3CC3)C2)C1`, the IC50 in test [3] came out at 4 nM; in test [1] it was 3.4 µM; in test [4] it was 900 nM. For the same compound, the Ratio IC50 in test [2] turned out to be 850.

For `Cc1cc(F)ccc1S(=O)(=O)NC[C@@H](O)CN1CCC[C@@]2(CCN(c3ncnc(N)c3C3CC3)C2)C1`, the results for the IC50 in test [3], in test [1] and in test [4] were 8 nM, 7.8 µM and 2200 nM, respectively. In addition, in test [2], the Ratio IC50 stood at 970.
